Where “and” joins values, the source holds several entries; their conditions need not be identical. Equal values may be shown once.
Legend:
[1] = Transcutaneous activation: photodegradation of BPD in plasma in vivo; parameters: species or system mice; details: for BPD in Plasma: individual values; for photodegraded BPD, Dose / Photodegraded BPD: in vivo
Description: The light box was custom built at a workshop at the University of British Columbia. It was composed of two layers of 14 75 W tungsten-halogen reflector bulbs (General Electric), which illuminated the treatment area from the top and from the bottom. Light was filtered by 1) a set of filters comprising yellow and red plastic films which absorbed most of the light at wavelengths shorter than 600 nm and 2) 15 mm thick water filters which absorbed light above 900 nm. Cooling was provided by a steady flow of cold water in the water filters and by a set of 5 fans. The light intensity was measured by an IL 1350 Photometer (International Light).
The intensity of light delivered by the top and bottom sets of bulbs was not uniform. The bottom set delivered 33-40 mW/cm^2 as measured at floor level of the exposure chamber, while the top set delivered 27-33 mW/cm^2 as measured at the skin surface of the backs of the animals. The range described resulted from inconsistent influence at the horizontal plane of irradiation. In addition, mice moved about during light exposure, so that at various times different parts of their skin received different amounts of light. Therefore, the doses delivered to the surface of mice skin must be approximated and the calculations have been based on an intensity of 30 mW/cm^2.
Determination of BPD Concentration in Plasma: Plasma samples were obtained by centrifugation of blood collected from mice and stored frozen at -20° C. until assessment. The concentration of BPD in the samples was determined by fluorometry using a Jasco Model FP-770 (Japan Spectroscopic Co.) spectrofluorometer and a microcuvette (Far UV Quartz Cell, Starna Cells Inc.). Excitation and emission wavelengths were 439 and 699 nm, respectively. Plasma samples were diluted 20-fold with PBS containing 1% Triton® X-100 immediately before fluorescence was determined. BPD standards were prepared in 5% mouse plasma in PBS with 1% Triton® X-100. Under these conditions the relationship between the concentration of BPD and units of fluorescence was linear (correlation coefficient >0.99) for concentrations between 0.1 ng/ml and 1 μg/ml. The limit of detection was below 0.1 ng/ml sample which corresponded to 2 ng/ml plasma. […] The 699 nm fluorescence peak of BPD was virtually free from any interference.
Fourteen mice (weight 22±1 g) were used in this study. Twelve mice were injected with 20 μg (0.9 mg/kg) of liposomal BPD (in 200 μl) and kept in the dark for 1 hour before exposure to light. The mice each were exposed to light for 30 min, 1 hour or 1.5 hours, which delivered light doses to the skin surface of 54, 108 and 162 J/cm^2, respectively. Immediately after light exposure, blood samples were obtained. At the corresponding times, blood samples were obtained from two mice injected with BPD, but not exposed to light. Two additional mice were tested one hour after injection.
The aim of this study was to determine light penetration of the tissues to activate BPD. It was assumed that the substantial photodegradation of BPD in blood would represent substantial activation of BPD.
The BPD plasma concentration was then determined by fluorescence. The concentrations of unchanged BPD in the plasma of exposed and unexposed control mice were compared.

P815 cells = assay: Surviving clonogenic P815 cells in mouse blood; assay type: in vivo, DBA/2 mice; details: average of 3 mice/group
Experimental: Male mature DBA/2 and Balb/c mice were injected intravenously with P815 and L1210 cells, respectively, preincubated for 1 hour with BPD (liposomal) at 100 ng/ml. Immediately before animal injection, an additional 2 μg of BPD was added to the syringes containing cells. […] One group of mice (shaved and depilated) was exposed immediately to red light (600-900 nm) in the light box for 1.5 hours (162 J/cm^2); the other group was kept in the dark as the control.
Immediately after exposure to light, blood samples were obtained by a heart puncture under halothane anesthesia. The concentration of BPD in plasma of light-exposed and control mice was determined by fluorescence. The number of clonogenic tumor cells in mouse blood was determined by culturing blood samples in culture medium supplemented with 10% bovine serum, using a limiting dilution assay protocol.

mice skin = assay: Skin photosensitivity and skin changes, transcutaneous activation study; assay type: in vivo
[2] = 1 1/2 h - C, no light, 2 1/2 h post injection, 0.9 mg/kg, 150 min
[3] = 1 1/2 h light, 162 J/cm^2, 2 1/2 h post injection, 0.9 mg/kg, 150 min
[4] = 30 min - C, no light, 1 1/2 h post injection, 0.9 mg/kg, 90 min
[5] = 30 min light, 54 J/cm^2, 1 1/2 h post injection, 0.9 mg/kg, 90 min

Substance: benzoprophyrin derivative monoacid ring A [BPD]
- BPD in Plasma, Mean ± SD ([1]; 0 h - C, no light, 1 h post injection, 0.9 mg/kg): 1.243 ± 0.262 µg/mL
- BPD in Plasma ([1]; 0 h - C, no light, 1 h post injection, 0.9 mg/kg, 60 min): 1.428 µg/mL and 1.058 µg/mL
- BPD in Plasma, Mean ± SD [1, 2]: 0.690 ± 0.048 µg/mL
- BPD in Plasma [1, 2]: 0.724 µg/mL and 0.656 µg/mL
- BPD in Plasma, Mean ± SD [1, 3]: 0.168 ± 0.033 µg/mL
- BPD in Plasma [1, 3]: 0.191 µg/mL and 0.145 µg/mL
- BPD in Plasma, Mean ± SD [1, 4]: 0.930 ± 0.441 µg/mL
- BPD in Plasma [1, 4]: 0.618 µg/mL and 1.242 µg/mL
- BPD in Plasma, Mean ± SD [1, 5]: 0.596 ± 0.042 µg/mL
- BPD in Plasma [1, 5]: 0.566 µg/mL and 0.626 µg/mL
- BPD in Plasma, Mean ± SD ([1]; 1 h - C, no light, 2 h post injection, 0.9 mg/kg): 0.944 ± 0.421 µg/mL
- BPD in Plasma ([1]; 1 h - C, no light, 2 h post injection, 0.9 mg/kg, 120 min): 0.646 µg/mL and 1.242 µg/mL
- BPD in Plasma, Mean ± SD ([1]; 1 h light, 108 J/cm^2, 2 h post injection, 0.9 mg/kg): 0.301 ± 0.061 µg/mL
- BPD in Plasma ([1]; 1 h light, 108 J/cm^2, 2 h post injection, 0.9 mg/kg, 120 min): 0.258 µg/mL and 0.344 µg/mL
- photodegraded BPD, Dose ([1]; 54 J/cm^2): 0.334 µg/mL
- Photodegraded BPD ([1]; 54 J/cm^2, 0.9 mg/kg): 36%
- photodegraded BPD, Dose ([1]; 108 J/cm^2): 0.643 µg/mL
- Photodegraded BPD ([1]; 108 J/cm^2, 0.9 mg/kg): 68%
- photodegraded BPD, Dose ([1]; 162 J/cm^2): 0.522 µg/mL
- Photodegraded BPD ([1]; 162 J/cm^2, 0.9 mg/kg): 76%
- BPD photodegraded in blood in vivo ([1]; light doses of 54-162 J/cm^2, 0.9 mg/kg): 36-76%
- plasma concentrations of BPD at the beginning of exposure to light ([1]; present study, 0.9 mg/kg, 1 hour after injection): above 3 μg/ml
- Surviving cells in blood (P815 cells; Dark control): 50 P815 cells/2 ml blood/mouse
- Surviving cells in blood (P815 cells; Light exposed (162 J/cm^2)): 8 P815 cells/2 ml blood/mouse
- skin photosensitivity (mice skin; 0.9 mg/kg liposomal BPD, 54-162 J/cm^2): did not cause skin photosensitivity
- changes of the skin (mice skin; immediately or during the 2 week post-exposure period, 0.9 mg/kg, 30 mW/cm^2): no changes of the skin were observed
